Test results as given in PubChem BioAssay (NCI).
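The compound was tested at five concentrations on cells cultured in 96-well plates, with a 48-hour exposure period. Abbreviation: GI50, concentration required for 50% inhibition of growth. At the TGI there is no net growth.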

Tests used:
Test in all cases: growth of human tumour cells (NCI), 48 h; in the data active means GI50 below about 0.43 µM; inactive means the rest
NCI-H23 lung = system: NCI-H23 lung
RXF-631 renal = system: RXF-631 renal
SK-MEL-28 melanoma = system: SK-MEL-28 melanoma
NCI/ADR-RES ovarian = system: NCI/ADR-RES ovarian
EKVX NSCLC = system: EKVX NSCLC
HCT-15 colon = system: HCT-15 colon
DMS 114 small cell lung = system: DMS 114 small cell lung
LOX IMVI melanoma = system: LOX IMVI melanoma
UACC-62 melanoma = system: UACC-62 melanoma
HOP-62 NSCLC = system: HOP-62 NSCLC
DU-145 prostate = system: DU-145 prostate
MALME-3M melanoma = system: MALME-3M melanoma
T-47D breast = system: T-47D breast
SK-OV-3 ovarian = system: SK-OV-3 ovarian
SW-620 colon = system: SW-620 colon
ACHN renal = system: ACHN renal
HS 578T breast = system: HS 578T breast
OVCAR-8 ovarian = system: OVCAR-8 ovarian
BT-549 breast = system: BT-549 breast
OVCAR-5 ovarian = system: OVCAR-5 ovarian
PC-3 prostate = system: PC-3 prostate
MDA-MB-435 = system: MDA-MB-435
XF 498 CNS = system: XF 498 CNS
M19-MEL melanoma = system: M19-MEL melanoma
A498 renal = system: A498 renal
HOP-92 NSCLC = system: HOP-92 NSCLC
MOLT-4 leukemia = system: MOLT-4 leukemia
HCC-2998 colon = system: HCC-2998 colon
NCI-H522 lung = system: NCI-H522 lung
K-562 leukemia = system: K-562 leukemia
A549 NSCLC = system: A549 NSCLC
SR leukemia = system: SR leukemia
TK-10 renal = system: TK-10 renal
M14 melanoma = system: M14 melanoma
RPMI-8226 leukemia = system: RPMI-8226 leukemia
SK-MEL-5 melanoma = system: SK-MEL-5 melanoma
HT29 colon = system: HT29 colon
OVCAR-3 ovarian = system: OVCAR-3 ovarian
DMS 273 small cell lung = system: DMS 273 small cell lung
MCF7 breast = system: MCF7 breast
NCI-H460 lung = system: NCI-H460 lung
SK-MEL-2 melanoma = system: SK-MEL-2 melanoma
SNB-78 CNS = system: SNB-78 CNS
MDA-MB-231 breast = system: MDA-MB-231 breast
HL-60(TB) leukemia = system: HL-60(TB) leukemia
NCI-H226 lung = system: NCI-H226 lung
SF-268 CNS = system: SF-268 CNS
CCRF-CEM leukemia = system: CCRF-CEM leukemia
SNB-19 CNS = system: SNB-19 CNS
SN12C renal = system: SN12C renal
SF-539 CNS = system: SF-539 CNS
HCT-116 colon = system: HCT-116 colon
SNB-75 CNS = system: SNB-75 CNS
OVCAR-4 ovarian = system: OVCAR-4 ovarian
COLO 205 colon = system: COLO 205 colon
UACC-257 melanoma = system: UACC-257 melanoma
KM12 colon = system: KM12 colon
CAKI-1 renal = system: CAKI-1 renal
LXFL 529 NSCLC = system: LXFL 529 NSCLC
UO-31 renal = system: UO-31 renal
786-0 renal = system: 786-0 renal
RXF 393 renal = system: RXF 393 renal
SF-295 CNS = system: SF-295 CNS
IGROV1 ovarian = system: IGROV1 ovarian
U251 CNS = system: U251 CNS
DLD-1 colon = system: DLD-1 colon

Nc1n[n+](=O)c2ccccc2n1O
> 65.7 µM: TGI (SK-MEL-5 melanoma)
inactive: GI50 (NCI-H23 lung) 29.6 µM | GI50 (NCI/ADR-RES ovarian) 55.2 µM | GI50 (DU-145 prostate) 69.1 µM | GI50 (T-47D breast) 38.4 µM | GI50 (HS 578T breast) > 100 µM | GI50 (BT-549 breast) 19.3 µM | GI50 (PC-3 prostate) 94.3 µM | GI50 (MDA-MB-435) > 100 µM | GI50 (A498 renal) 11.9 µM | GI50 (HCC-2998 colon) 50.7 µM | GI50 (SR leukemia) 20.6 µM | GI50 (MCF7 breast) 60.5 µM | GI50 (MDA-MB-231 breast) > 100 µM | GI50 (HCT-116 colon) 62.9 µM
> 100 µM: TGI (NCI-H23 lung) | TGI (RXF-631 renal) | TGI (SK-MEL-28 melanoma) | TGI (NCI/ADR-RES ovarian) | TGI (EKVX NSCLC) | TGI (HCT-15 colon) | TGI (DMS 114 small cell lung) | TGI (LOX IMVI melanoma) | TGI (UACC-62 melanoma) | TGI (HOP-62 NSCLC) | TGI (DU-145 prostate) | TGI (MALME-3M melanoma) | TGI (T-47D breast) | TGI (SK-OV-3 ovarian) | TGI (SW-620 colon) | TGI (ACHN renal) | TGI (HS 578T breast) | TGI (OVCAR-8 ovarian) | TGI (BT-549 breast) | TGI (OVCAR-5 ovarian) | TGI (PC-3 prostate) | TGI (MDA-MB-435) | TGI (XF 498 CNS) | TGI (M19-MEL melanoma) | TGI (A498 renal) | TGI (HOP-92 NSCLC) | TGI (MOLT-4 leukemia) | TGI (HCC-2998 colon) | TGI (NCI-H522 lung) | TGI (K-562 leukemia) | TGI (A549 NSCLC) | TGI (SR leukemia) | TGI (TK-10 renal) | TGI (M14 melanoma) | TGI (RPMI-8226 leukemia) | TGI (HT29 colon) | TGI (OVCAR-3 ovarian) | TGI (DMS 273 small cell lung) | TGI (MCF7 breast) | TGI (NCI-H460 lung) | TGI (SK-MEL-2 melanoma) | TGI (SNB-78 CNS) | TGI (MDA-MB-231 breast) | TGI (HL-60(TB) leukemia) | TGI (NCI-H226 lung) | TGI (SF-268 CNS) | TGI (CCRF-CEM leukemia) | TGI (SNB-19 CNS) | TGI (SN12C renal) | TGI (SF-539 CNS) | TGI (HCT-116 colon) | TGI (SNB-75 CNS) | TGI (OVCAR-4 ovarian) | TGI (COLO 205 colon) | TGI (UACC-257 melanoma) | TGI (KM12 colon) | TGI (CAKI-1 renal) | TGI (LXFL 529 NSCLC) | TGI (UO-31 renal) | TGI (786-0 renal) | TGI (RXF 393 renal) | TGI (SF-295 CNS) | TGI (IGROV1 ovarian) | TGI (U251 CNS)

CC1NS(=O)(=O)N(C)C1=O (stereo not drawn)
> 100 µM: TGI (NCI-H23 lung) | TGI (RXF-631 renal) | TGI (SK-MEL-28 melanoma) | TGI (HCT-15 colon) | TGI (DMS 114 small cell lung) | TGI (LOX IMVI melanoma) | TGI (UACC-62 melanoma) | TGI (HOP-62 NSCLC) | TGI (MALME-3M melanoma) | TGI (SK-OV-3 ovarian) | TGI (SW-620 colon) | TGI (ACHN renal) | TGI (OVCAR-8 ovarian) | TGI (OVCAR-5 ovarian) | TGI (XF 498 CNS) | TGI (M19-MEL melanoma) | TGI (HOP-92 NSCLC) | TGI (MOLT-4 leukemia) | TGI (HCC-2998 colon) | TGI (NCI-H522 lung) | TGI (K-562 leukemia) | TGI (A549 NSCLC) | TGI (DLD-1 colon) | TGI (SR leukemia) | TGI (TK-10 renal) | TGI (M14 melanoma) | TGI (RPMI-8226 leukemia) | TGI (SK-MEL-5 melanoma) | TGI (OVCAR-3 ovarian) | TGI (DMS 273 small cell lung) | TGI (SK-MEL-2 melanoma) | TGI (SNB-78 CNS) | TGI (HL-60(TB) leukemia) | TGI (NCI-H226 lung) | TGI (SF-268 CNS) | TGI (CCRF-CEM leukemia) | TGI (SN12C renal) | TGI (SF-539 CNS) | TGI (HCT-116 colon) | TGI (SNB-75 CNS) | TGI (OVCAR-4 ovarian) | TGI (UACC-257 melanoma) | TGI (KM12 colon) | TGI (CAKI-1 renal) | TGI (LXFL 529 NSCLC) | TGI (RXF 393 renal) | TGI (SF-295 CNS) | TGI (IGROV1 ovarian) | TGI (U251 CNS)
